Source: patent US10618916B2, “Heterocyclic compounds as immunomodulators” (Incyte Corporation, priority 2018, dated 2020)

Columns and labels:
[1] = test system: PD-L1 aAPC/CHO-K1 cells and Jurkat-PD-1-NFAT effector cells; test: Nuclear factor of activated T-cells (NFAT) assay; assay type: cell-based; details: Cricetulus griseus, CHO-K1
Summary of the method: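 CHO-K1 cells expressing PD-L1 aAPC were co-cultured with Jurkat-PD-1-NFAT effector cells in RPMI 1640 with 1% FBS and compound (0.4% DMSO; top concentration 2 μM) for 24 h at 37 °C. Bio-Glo luminescence was read, fold induction normalised to DMSO wells, and EC50 fitted from percent of control compound activity.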

[2] = test system: U2OS/PD-L1 cells and Jurkat-PD-1-SHP cells; test: Src homology region 2 domain-containing phosphatase (SHP) assay; assay type: cell-based; details: Homo sapiens, U2OS
Summary of the method: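 U2OS/PD-L1 and Jurkat-PD-1-SHP cells (5000 each per well) were co-incubated with compound for 2 h at 37 °C in RPMI1640 with 1% FBS, 0.05% DMSO final. PathHunter chemiluminescence was read after 1 h at room temperature, and IC50 was fitted from percent of DMSO-control activity.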

[3] = molecular target: PD-1/PD-L1 protein/protein interaction (recombinant human PD-L1 and human PD-1) (Homo sapiens (Human), UniProt Q9NZQ7); test: Homogeneous Time-Resolved Fluorescence (HTRF) PD-1/PD-L1 binding assay
PD-1/PD-L1 protein/protein interaction (recombinant human PD-L1 and human PD-1), sequence (Q9NZQ7 19-238): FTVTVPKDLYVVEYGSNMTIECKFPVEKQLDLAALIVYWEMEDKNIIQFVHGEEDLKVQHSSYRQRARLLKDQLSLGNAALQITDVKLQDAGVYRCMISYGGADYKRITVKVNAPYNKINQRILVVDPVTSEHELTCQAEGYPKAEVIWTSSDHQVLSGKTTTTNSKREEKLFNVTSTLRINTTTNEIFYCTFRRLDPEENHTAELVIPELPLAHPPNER
Summary of the method: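 Human PD-L1 (19-238, C-His; 10 nM final) and PD-1 (25-167, C-Fc; 3 nM final) preincubated 40 min with inhibitor in PBS pH 7.4, 0.05% Tween-20, 0.1% BSA, 1% DMSO, 25 °C. Eu-anti-human IgG (1 nM) and anti-His-APC (20 nM) added for 60 min; 665/620 nm ratio; IC50 from percent-control curves.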

PD-L1 = PD-L1 (Homo sapiens (Human), UniProt Q9NZQ7); test: PD-L1 whole blood internalization assay; assay type: cell-based; details: 24 HR, PD-L1 expression on CD14+ cells, human interferon γ
PD-L1, sequence (Q9NZQ7 19-290): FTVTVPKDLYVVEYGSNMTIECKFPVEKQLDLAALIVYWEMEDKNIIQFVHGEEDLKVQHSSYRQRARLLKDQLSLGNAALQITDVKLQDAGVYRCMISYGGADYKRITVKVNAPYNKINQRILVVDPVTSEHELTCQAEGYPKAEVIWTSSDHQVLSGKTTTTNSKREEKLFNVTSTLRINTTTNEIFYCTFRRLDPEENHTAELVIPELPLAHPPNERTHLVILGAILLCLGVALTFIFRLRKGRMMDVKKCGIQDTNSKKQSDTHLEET

Row | IC50 [2] | IC50 [3] | IC50 (PD-L1) | SMILES | EC50 [1]
1 | ≤ 10 nM | ≤ 5 nM | 10 to 100 nM | Cc1c(NC(=O)c2nc3c(n2C)CCN(CCC24CCC(C(=O)O)(CC2)C4)C3)cccc1-c1cccc(NC(=O)c2nc3c(n2C)CCN(C[C@@H](C)O)C3)c1C [Example 57, (R)-4-(2-(2-((3′-(5-(2-hydroxypropyl)-1-methyl-4,5,6,7-tetrahydro-1H-imidazo[4,5-c]pyridine-2-carboxamido)-2,2′-dimethyl-[1,1′-biphenyl]-3-yl)carbamoyl)-1-methyl-1,4,6,7-tetrahydro-5H-imidazo[4,5-c]pyridin-5-yl)ethyl)bicyclo[2.2.1]heptane-1-carboxylic Acid] | 10 to 100 nM
2 | ≤ 10 nM | ≤ 5 nM | 100 to 500 nM | Cc1c(NC(=O)c2nc3c(n2C)CCN(CCC24CCC(C(=O)O)(CC2)C4)C3)cccc1-c1cccc(NC(=O)c2nc3c(n2C)CCN(C[C@H](C)O)C3)c1C [Example 58, (S)-4-(2-(2-((3′-(5-(2-hydroxypropyl)-1-methyl-4,5,6,7-tetrahydro-1H-imidazo[4,5-c]pyridine-2-carboxamido)-2,2′-dimethyl-[1,1′-biphenyl]-3-yl)carbamoyl)-1-methyl-1,4,6,7-tetrahydro-5H-imidazo[4,5-c]pyridin-5-yl)ethyl)bicyclo[2.2.1]heptane-1-carboxylic acid] | 10 to 100 nM
3 | ≤ 10 nM | ≤ 5 nM | 10 to 100 nM | Cn1c(C(=O)Nc2cccc(-c3cccc(NC(=O)c4nc5c(n4C)CCN(CC[C@H]4CC[C@H](C(=O)O)CC4)C5)c3Cl)c2Cl)nc2c1CCN(CCC13CCC(C(=O)O)(CC1)C3)C2 [Example 62, 4-(2-(2-((3′-(5-(2-(trans-4-carboxycyclohexyl)ethyl)-1-methyl-4,5,6,7-tetrahydro-1H-imidazo[4,5-c]pyridine-2-carboxamido)-2,2′-dichloro-[1,1′-biphenyl]-3-yl)carbamoyl)-1-methyl-1,4,6,7-tetrahydro-5H-imidazo[4,5-c]pyridin-5-yl)ethyl)bicyclo[2.2.1]heptane-1-carboxylic acid] | 10 to 100 nM
4 | ≤ 10 nM | ≤ 5 nM | 10 to 100 nM | Cn1c(C(=O)Nc2cccc(-c3cccc(NC(=O)c4nc5c(n4C)CCN([C@H]4CC[C@@](C)(C(=O)O)CC4)C5)c3Cl)c2Cl)nc2c1CCN(CCC13CCC(C(=O)O)(CC1)C3)C2 [Example 65, 4-(2-(2-((3′-(5-(cis-4-carboxy-4-methylcyclohexyl)-1-methyl-4,5,6,7-tetrahydro-1H-imidazo[4,5-c]pyridine-2-carboxamido)-2,2′-dichloro-[1,1′-biphenyl]-3-yl)carbamoyl)-1-methyl-1,4,6,7-tetrahydro-5H-imidazo[4,5-c]pyridin-5-yl)ethyl)bicyclo[2.2.1]heptane-1-carboxylic Acid] | 10 to 100 nM
5 | ≤ 10 nM | ≤ 5 nM | 10 to 100 nM | Cn1c(C(=O)Nc2cccc(-c3cccc(NC(=O)c4nc5c(n4C)CCN([C@H]4CC[C@](C)(C(=O)O)CC4)C5)c3Cl)c2Cl)nc2c1CCN(CCC13CCC(C(=O)O)(CC1)C3)C2 [Example 66, 4-(2-(2-((3′-(5-(trans-4-carboxy-4-methylcyclohexyl)-1-methyl-4,5,6,7-tetrahydro-1H-imidazo[4,5-c]pyridine-2-carboxamido)-2,2′-dichloro-[1,1′-biphenyl]-3-yl)carbamoyl)-1-methyl-1,4,6,7-tetrahydro-5H-imidazo[4,5-c]pyridin-5-yl)ethyl)bicyclo[2.2.1]heptane-1-carboxylic Acid] | ≤ 10 nM
